Experimental data from patent US11584712B2, “Alkylamine-substituted perthiocarbamates as dual precursors to hydropersulfide and carbonyl sulfide” (The Johns Hopkins University, priority 2020, dated 2023).
“Also recorded” adds a separate entry of the source.

Legend:
[1] = COS release using membrane inlet mass spectrometry (MIMS); format: physicochemical; settings: precursor 50 μM, NAC 0.25 mM (5 equiv.), pH 7.4 phosphate buffer saline with DTPA, 37° C.
Description: (§1) COS was analyzed using a Hiden HPR-40 MIMS system with a sample cell and membrane probe that have been optimized to detect gases dissolved in aqueous solution as described previously. Cline et al., 2011. A stock solution of N-acetyl-cysteine (25 mM) was prepared in DI water. RSSH precursor stock solutions (5 mM) were prepared in DMSO. These solutions were degassed by purging with nitrogen for 10 min before COS release analysis. Typically, 20 mL phosphate buffer solution (10 mM) was added to the sample cell, degassed and purged with a continuous flow of argon for 15 min. N-acetyl cysteine (200 μL, 25 mM) and RSSH precursor (200 μL, 5 mM) were then injected using a gas tight syringe and ion current at m/z 60 (COS^+) were collected for 2 h (source pressure was approximately 1×10^−7 to 5×10^−7 Torr).
as §1, with “(COS*)” for “(COS^+)”

[2] = Stability and intermolecular reactivity of control compound 8 by UPLC-MS; format: physicochemical; settings: 100 μM, 37° C.
Description: FIG. 11 is an UPLC-MS chromatogram of 8 (100 μM) incubated in pH 7.4 ammonium bicarbonate buffer at 37° C. Aliquots taken at various times were quenched with 1% formic acid and analyzed by UPLC-MS.
Aliquots (200 μL) were taken at specified time points, quenched with 1% formic acid (200 μL) and analyzed using UPLC-MS.
FIG. 13 is UPLC-MS chromatograms of control compound 8 (100 μM) reaction with NAC (500 μM) in pH 7.4 ammonium bicarbonate (50 mM) with the metal chelator DTPA (100 μM) at 37° C. Aliquots (200 μL) were taken at specified time points, quenched with 1% formic acid (200 μL) and analyzed using UPLC-MS;

H9c2 cells = test: H9c2 cell protection from H2O2-mediated oxidative stress, SYTOX Green nucleic acid stain; format: cell-based, rat; settings: 2 h pretreatment (150 μM for 8), then H2O2 200 μM
Description: Cells were seeded at a density of 1×10^4 cells/well. After 24 h, precursor 7b or byproduct 2b is added in 20 μL volumes using DMSO: H2O (<0.01% DMSO). Cells were incubated for 2 h before media was removed and the cells gently washed with PBS (pH 7.4). Then, 180 μL of fresh media and 20 μL H2O2 diluted in H2O were added before cells were incubated for an additional 1 h. After removing this media, 100 μL of media containing 3 μM SYTOX™ Green nucleic acid stain was added, and the cells incubated for 2 h before fluorescence readings were obtained at 485Ex/538Em (Step 1). Finally, an additional 100 μL of media containing 3 μM SYTOX™ and 0.2% Triton X-100 was added in order to permeabilize all cells and incubated for 1 h before fluorescence values measured (Step 2). The relative % cells surviving was calculated as a 100% minus the ratio of the fluorescence value of Step 1 over Step 2 (% cells surviving=100%−(FL538 (Step 1)/FL538 (Step 2)). Fluorescence values for vehicle-treated, non-H2O2-exposed wells were treated as background cell death and this value is added to the % cell survival for each subsequent group.
See Hofgaard et al., 2006, for general procedures. […] After removing this media, 100 μL of media containing 3 μM SYTOX® Green nucleic acid stain was added, and the cells incubated for 2 h before fluorescence readings were obtained at 485Ex/538Em (Step 1). […]

CCCN(C)C(=O)SSC(C)(C)C(NC(C)=O)C(=O)OC (centres unmarked) [control compound 8, Methyl 2-acetamido-3-methyl-3-((methyl(propyl)carbamoyl)disulfaneyl)butanoate]
COS release (m/z=60 signal) [1]: Relatively slow COS release | RSSH release via intermolecular reaction with thiol ([2]; NAC 500 μM, pH 7.4 ammonium bicarbonate buffer): does not release RSSH via intermolecular reactions | reaction with n-butylamine (RSSH release via intermolecular reaction) ([2]; n-BuNH2 500 μM (5 equiv.), pH 7.4 ammonium bicarbonate:acetonitrile (9:1), at least over 2 h): no reactivity; also recorded: lack of reaction | stability / RSSH release at pH 7.4 ([2]; pH 7.4 ammonium bicarbonate buffer): No RSSH release; also recorded: stable under these conditions and does not produce RSSH | protection against H2O2-mediated toxicity (SYTOX) (H9c2 cells): protective effects against H2O2-mediated toxicity, but to a lesser extent compared with 7b
